For one data set, the system named is Anas platyrhynchos. Particulars: short-term; oral; feed; mortality.
The subject of the next data set is Canidae. The settings on record: chronic; duration: 1 years; oral; Dog Other; histopathology: nonneoplastic.
Another data set has as its system Colinus virginianus. Particulars: for LD50: acute, oral, mortality.

We go through 1 compound from EPA's ToxValDB 9.5 (doi:10.2903/j.efsa.2012.2860).

In general, NOAEL refers to the highest dose or exposure tested at which no adverse effect was seen.

Take `Cc1nn(C)c(F)c1C(=O)Nc1ccccc1C(C)CC(C)C` (stereo not given) [Penflufen]: the LD50 was over 2210 mg/kg-day in the data set with Anas platyrhynchos; over 1700 mg/kg-day in the data set with Colinus virginianus (diet); over 4000 mg/kg-day in the data set with Colinus virginianus; over 2000 mg/kg-day in the data set with Rattus norvegicus (acute, oral, mortality). For the same compound, the NOAEL with Canidae was determined as 7.7 mg/kg-day; in the data set on Rattus norvegicus (acute, oral, F, clinical signs), 50 mg/kg-day; in the data set on Rattus norvegicus (chronic, duration: 2 years, histopathology: nonneoplastic) it was 4 mg/kg-day; in the data set with Rattus norvegicus (reproduction developmental, F, reproduction) it was 71 mg/kg-day; with Rattus norvegicus (reproduction developmental, M, reproduction), 58 mg/kg-day. The compound further yielded an NOEL in the data set with Colinus virginianus (reproduction developmental) of 96 mg/kg-day.
